# In patent US20250295693A1, “HYBRID TUMOR/CANCER THERAPY BASED ON TARGETING THE RESOLUTION OF OR INDUCING TRANSCRIPTION-REPLICATION CONFLICTS (TRCS)” (Julius-Maximilians-Universität Würzburg, priority 2021, published 2025):
# Entries after “also recorded” stand apart in the source; their conditions may differ.
# Tests used:
# RPA194 and RAD9 = test: Proximity ligation assays for RPA194 and RAD9; assay type: cell-based
# Source text: (§1) Deregulation of the WNT pathway in CRC not only deregulates transcription by RNAPII, but also by RNA polymerase I, which transcribes ribosomal RNAs in the nucleolus; this leads to enhanced synthesis of ribosomal RNA (Morral, Cell stem cell 26, 2020, 845-61). This is mediated by a beta-catenin dependent upregulation of multiple components of the ribosomal RNA synthesis machinery (FIG. 4a). Further to these observations, the effect of CX-5461, an inhibitor of RNA polymerase I transcription on the growth of CRC metastases, was analyzed. […] This observation was confirmed. […] Since there is an ongoing debate on the primary mechanism of CX-5461 action (Bruno, PNAS 117, 2020, 4053-60; Sanij, Nat Commun 11, 2020, 2641; Xu, Nat Commun 8, 2017, 14432), genetic work to validate its precise mechanism of action, and to further confirm that combining POL1 and ATR inhibition is a valid strategy to induce TRCs, is performed.
# human CRC cell lines = test: Colony assays of CRC cells in culture; assay type: cell-based; details: low concentrations of CX-5461 combined with ATR inhibitor (AZD6738); p53-independent
# Source text: as §1
# murine CRC organoids = test: Growth of CRC organoids, CX-5461 plus ATR inhibitor; assay type: cell-based; details: low concentrations of CX-5461 combined with ATR inhibitor (AZD6738)
# Source text: as §1
# phosphoKap1 = test: EdU incorporation/Hoechst plots with phosphoKap1 staining (DNA damage in S-phase); assay type: cell-based; details: b279: in conjunction with ATR inhibition
# Source text: as §1
# [1] = target: Aurora-A alleles, T217D and T217E (Homo sapiens, UniProt O14965, T217D); details: cited from earlier work
# Aurora-A alleles, T217D and T217E, sequence (O14965 whole entry T217D): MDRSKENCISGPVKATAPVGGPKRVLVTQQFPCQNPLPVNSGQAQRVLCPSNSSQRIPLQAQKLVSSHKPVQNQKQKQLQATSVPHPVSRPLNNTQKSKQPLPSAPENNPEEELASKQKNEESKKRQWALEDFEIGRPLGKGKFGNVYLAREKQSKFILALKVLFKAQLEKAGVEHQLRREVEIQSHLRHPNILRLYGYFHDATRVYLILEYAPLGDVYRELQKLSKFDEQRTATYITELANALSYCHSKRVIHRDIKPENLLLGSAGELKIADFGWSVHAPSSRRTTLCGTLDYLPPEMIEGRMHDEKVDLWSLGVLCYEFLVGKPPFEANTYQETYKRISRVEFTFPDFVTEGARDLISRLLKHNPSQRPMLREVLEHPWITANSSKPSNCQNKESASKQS
# pancreas carcinoma cells = test: Microscopy-based siRNA screen for DNA damage in pancreas carcinoma cells; assay type: cell-based; details: siRNA hits, low concentration of ATR inhibitor
# Source text: FIG. 1. […] Similar assays (not shown) establish that CDK12 acts downstream of PAF1 in this pathway. e: DNA damage and colony assays in response to combined inhibition of CDK12 and ATR.
# Targeting the mechanisms that resolve TRCs is considered a viable strategy to inflict tumor cell-specific DNA damage and/or to sensitize tumors to immune cell-mediated killing. Several of the mechanisms described herein appear to be specific for MYCN-driven tumors. For example, (c-)MYC (herein also just “MYC”) binds only very weakly to Aurora-A (Dauch, Nat Med 22, 2016, 744-53). Therefore, pathways have been identified that resolve TRCs in models of MYC driven tumors, which encompasses the vast majority of all tumors. Specifically, there was a focus on conflicts in a cell line established from the KPC model of pancreas carcinoma (Hingorani, loc.cit.). This reflects human PDAC. In this model, an siRNA screen of 86 candidate genes was performed using several parallel microscope-based assays to measure the occurrence of TRCs (FIG. 1).
# MYC = MYC expression in cells with ectopic expression of murine ATP1A1; assay type: cell-based
# Method: FIG. 15. The effect of CG on MYC protein levels is mediated by inhibition of the NA/K pump. A: Depletion of the ATP1A1 subunit of the NA/K pump leads to the reduction of MYC protein levels. B: Ectopic expression of murine ATP1A1 renders the expression of MYC insensitive from the addition of cymarin, a prototypical KG.
# (§2) After treatment for 24 h, cells were harvested in RIPA buffer containing protease and phosphatase inhibitor cocktails. The protein concentration was determined using BCA or Bradford assay. 15 μg of protein was loaded on a 10% SDS gel. After electrophoresis, proteins were transferred to 0.45 μm PVDF membrane and incubated with primary antibodies at 4° C. overnight. The signal was detected using peroxidase-conjugated species-specific secondary antibodies and visualized at LAS-4000 Luminescent Image Analyzer (Fujifilm).
# Further, it was shown that the depletion of the ATP1A1 subunit of the NA/K pump leads to the reduction of MYC protein levels (FIG. 15A).
# MYC protein = test: Immunoblot of MYC protein in human tumor cells; assay type: cell-based; details: 24 h treatment
# Method: FIG. 14. […] A: Immunoblot of tumor cells after 24 h treatment with Cymarin. B: Quantification of MYC protein levels in human pancreatic tumor cells and colorectal tumor cells.
# as §2
# An immunoblot of tumor cells after 24 h treatment with cymarin was made (FIG. 14A). Quantification of MYC protein levels in human pancreatic tumor cells and colorectal tumor cells was performed (FIG. 14B).
# [2] = system: human LS174 colo-rectal tumor cells; test: Extracellular acidification rate (lactate secretion), Seahorse XF96; assay type: cell-based
# CDK12 kinase = details: cited from earlier work
compound,measurement,setting,value
Cc1cnc(CNC(=O)c2c(=O)c3ccc(N4CCCN(C)CC4)nc3n3c2sc2ccccc23)cn1 [CX-5461],conflicts with DNA replication: proximity between RPA194 and RAD9,RPA194 and RAD9,increased proximity
same,colony formation,human CRC cell lines,suppression of growth; also recorded: almost completely suppressed
same,colony formation / growth of organoids,murine CRC organoids,suppression of growth; also recorded: almost completely suppressed
same,DNA damage during DNA replication (S-phase),phosphoKap1,induction of DNA damage; also recorded: massive DNA damage
COc1cc(Nc2ncc3c(n2)-c2ccc(Cl)cc2C(c2c(F)cccc2OC)=NC3)ccc1C(=O)O [Alisertib],resistance of cells,[1],resistant
C[C@@H]1COCCN1c1cc(C2([S@](C)(=N)=O)CC2)nc(-c2cc[nH]c3nccc2-3)n1 [AZD6738],DNA damage,pancreas carcinoma cells,strongly increased DNA damage
"CO[C@H]1C[C@H](O[C@H]2CC[C@]3(C=O)[C@H]4CC[C@]5(C)[C@@H](C6=CC(=O)OC6)CC[C@]5(O)[C@@H]4CC[C@]3(O)C2)O[C@H](C)[C@H]1O [cymarin, Cymarin]",expression of MYC on addition of cymarin,MYC,insensitive
same,amount of MYC protein,MYC protein,reduce the amount of MYC protein
same,extracellular acidification rate (lactate secretion),[2]; LS174 cells,significantly reduced
same,effect on extracellular acidification rate,[2]; overexpression of the murine 1 isoform of Na+/K+-ATPase,can be reduced
Cn1cc(-n2cnc3c(NCc4nc5cc(Cl)c(Cl)cc5[nH]4)nc(N4CCOCC4)nc32)cn1 [SR4835],inhibition of the CDK12 kinase,CDK12 kinase,specific and potent inhibitor
